This note sets out measurements from article PMC9848300, “Discovery of novel enasidenib analogues targeting inhibition of mutant isocitrate dehydrogenase 2 as antileukaemic agents” (Journal of Enzyme Inhibition and Medicinal Chemistry, 2023).

Read-outs that look alike come from different tables or passages of the source.

What all share (experiment): NCI 60 antitumor screening (single dose / five doses)
Holding throughout (format): cell-based
Holding throughout (conditions): Homo sapiens

Experiment [1] has as its system RPMI-8226.
For experiment [2], the system named is UACC-257.
The subject of experiment [3] is 786-0.
Experiment [4] relates to DU-145.
The test system of experiment [5] is BT-549.
Where [6] appears, read: RPMI-8226 (leukaemia), single dose 10 μM, read-out: Growth inhibition percentage (GI %).
Where [7] appears, read: UACC-257 (melanoma), single dose 10 μM, read-out: Growth inhibition percentage (GI %).
Where [8] appears, read: 786-0, 786-0 (renal cancer), single dose 10 μM, read-out: Growth inhibition percentage (GI %).
[9] abbreviates: DU-145 (prostate cancer), single dose 10 μM, read-out: Growth inhibition percentage (GI %).
Where [10] appears, read: BT-549 (breast cancer), single dose 10 μM, read-out: Growth inhibition percentage (GI %).
[11] abbreviates: RPMI-8226, read-out: Growth inhibition percentage (GI %).
The mark [12] stands for this setting: UACC-257, read-out: Growth inhibition percentage (GI %).
Setting [13] is: 786-0, read-out: Growth inhibition percentage (GI %).
The mark [14] stands for this setting: DU-145, read-out: Growth inhibition percentage (GI %).
Setting [15] is: BT-549, read-out: Growth inhibition percentage (GI %).

In the case of `Brc1ccccc1/C=N/Nc1nc(N/N=C/c2ccccc2Br)nc(N2CCOCC2)n1` [compound 6b, 2,4-Bis[(E)-2-[(2-bromophenyl)methylidene]hydrazin-1-yl]-6-(morpholin-4-yl)-1,3,5-triazine], the inhibition at 10 µM in experiment [1] (setting [6]) was 35%; in experiment [2] (setting [7]), -3.93%; in experiment [3] (setting [8]), 38.7%; in experiment [4] (setting [9]), 1.72%; in experiment [5] (setting [10]), -6.54%.
`O=[N+]([O-])c1cccc(/C=N/Nc2nc(N/N=C/c3cccc([N+](=O)[O-])c3)nc(N3CCOCC3)n2)c1` [compound 6f, 2-(Morpholin-4-yl)-4,6-bis[(E)-2-[(3-nitrophenyl)methylidene]hydrazin-1-yl]-1,3,5-triazine]: the inhibition at 10 µM in experiment [1] (setting [11]) stood at 66.4%; in experiment [2] (setting [12]), 9.17%; in experiment [3] (setting [13]) it was 30.4%; in experiment [4] (setting [14]) it was 31.1%; in experiment [5] (setting [15]), 11.7%.
For the compound `Clc1cccc(/C=N/Nc2nc(N/N=C/c3cccc(Cl)c3Cl)nc(N3CCOCC3)n2)c1Cl` [compound 6h, 2,4-Bis[(E)-2-[(2,3-Dichlorophenyl)methylidene]hydrazin-1-yl]-6-(morpholin-4-yl)-1,3,5-triazine], the inhibition at 10 µM in experiment [1] (setting [6]) was 12.1%; in experiment [2] (setting [7]), -9.57%; in experiment [3] (setting [8]), 1.86%; in experiment [4] (setting [9]), -2.63%; in experiment [5] (setting [10]) it was 0.16%.
Turning to `O=[N+]([O-])c1cc(/C=N/Nc2nc(N/N=C/c3ccc(Cl)c([N+](=O)[O-])c3)nc(N3CCOCC3)n2)ccc1Cl` [compound 6i, 2,4-Bis[(E)-2-[(4-Chloro-3-nitrophenyl)methylidene]hydrazin-1-yl]-6-(morpholin-4-yl)-1,3,5-triazine], the inhibition at 10 µM in experiment [1] (setting [11]) is 42.8%; in experiment [2] (setting [12]) it was -2.78%; in experiment [3] (setting [13]), -8.76%; in experiment [4] (setting [14]), -11.3%; in experiment [5] (setting [15]), -0.85%.
For `Oc1ccc(/C=N/Nc2nc(N/N=C/c3ccc(O)c(O)c3)nc(N3CCOCC3)n2)cc1O` [compound 6j, 4-[(1e)-(2-{4-[(E)-2-[(3,4-Dihydroxyphenyl)methylidene]hydrazin-1-yl]-6-(morpholin-4-yl)-1,3,5-triazin-2-yl}hydrazin-1-ylidene)methyl]benzene-1,2-diol], the inhibition at 10 µM is -3.09% in experiment [1] (setting [6]); -3.12% in experiment [2] (setting [7]); -3.75% in experiment [3] (setting [8]); -5.37% in experiment [4] (setting [9]); -9.12% in experiment [5] (setting [10]).
In the case of `C(=N\Nc1nc(N/N=C/c2ccc3c(c2)OCO3)nc(N2CCOCC2)n1)/c1ccc2c(c1)OCO2` [compound 6k, 2,4-Bis[(E)-2-(2H-1,3-Benzodioxol-5-ylmethylidene)hydrazin-1-yl]-6-(morpholin-4-yl)-1,3,5-triazine], the inhibition at 10 µM in experiment [1] (setting [6]) is 40.3%; in experiment [2] (setting [7]), -2.23%; in experiment [3] (setting [8]), 36.6%; in experiment [4] (setting [9]), 23.9%; in experiment [5] (setting [10]), 5.57%.
Take `Brc1ccccc1/C=N/Nc1nc(N/N=C/c2ccccc2Br)nc(N2CCCCC2)n1` [compound 7b, 2,4-Bis[(E)-2-[(2-Bromophenyl)methylidene]hydrazin-1-yl]-6-(piperidin-1-yl)-1,3,5-triazine]: the inhibition at 10 µM was -0.33% in experiment [1] (setting [6]); -8.22% in experiment [2] (setting [7]); 1.09% in experiment [3] (setting [8]); -4.47% in experiment [4] (setting [9]); -5.26% in experiment [5] (setting [10]).
As for `O=[N+]([O-])c1cccc(/C=N/Nc2nc(N/N=C/c3cccc([N+](=O)[O-])c3)nc(N3CCCCC3)n2)c1` [compound 7f, 2,4-Bis[(E)-2-[(3-Nitrophenyl)methylidene]hydrazin-1-yl]-6-(piperidin-1-yl)-1,3,5-triazine], the inhibition at 10 µM is 69.3% in experiment [1] (setting [11]); 4.25% in experiment [2] (setting [12]); -6.21% in experiment [3] (setting [13]); 29.8% in experiment [4] (setting [14]); 28.2% in experiment [5] (setting [15]).
For `Clc1cccc(/C=N/Nc2nc(N/N=C/c3cccc(Cl)c3Cl)nc(N3CCCCC3)n2)c1Cl` [compound 7h, 2,4-Bis[(E)-2-[(2,3-Dichlorophenyl)methylidene]hydrazin-1-yl]-6-(piperidin-1-yl)-1,3,5-triazine], the inhibition at 10 µM in experiment [1] (setting [6]) was 6.61%; in experiment [2] (setting [7]), 10.2%; in experiment [3] (setting [8]) it was -1.71%; in experiment [4] (setting [9]) it was 26.6%; in experiment [5] (setting [10]), 2.7%.
`O=[N+]([O-])c1cc(/C=N/Nc2nc(N/N=C/c3ccc(Cl)c([N+](=O)[O-])c3)nc(N3CCCCC3)n2)ccc1Cl` [compound 7i, 2,4-Bis[(E)-2-[(4-Chloro-3-nitrophenyl)methylidene]hydrazin-1-yl]-6-(piperidin-1-yl)-1,3,5-triazine]: the inhibition at 10 µM in experiment [1] (setting [11]) was 81.7%; in experiment [2] (setting [12]), 56.9%; in experiment [3] (setting [13]) it was -8.84%; in experiment [4] (setting [14]), 70.4%; in experiment [5] (setting [15]) it was 2.15%.
Regarding `Oc1ccc(/C=N/Nc2nc(N/N=C/c3ccc(O)c(O)c3)nc(N3CCCCC3)n2)cc1O` [compound 7j, 4-[(1e)-(2-{4-[(E)-2-[(3,4-Dihydroxyphenyl)methylidene]hydrazin-1-yl]-6-(piperidin-1-yl)-1,3,5-triazin-2-yl}hydrazin-1-ylidene)methyl]benzene-1,2-diol], the inhibition at 10 µM in experiment [1] (setting [6]) was -7.6%; in experiment [2] (setting [7]), -8.89%; in experiment [3] (setting [8]), -1.22%; in experiment [4] (setting [9]), 0.25%; in experiment [5] (setting [10]), 1.47%.
In the case of `C(=N\Nc1nc(N/N=C/c2ccc3c(c2)OCO3)nc(N2CCCCC2)n1)/c1ccc2c(c1)OCO2` [compound 7k, 2,4-Bis[(E)-2-(2H-1,3-Benzodioxol-5-ylmethylidene)hydrazin-1-yl]-6-(piperidin-1-yl)-1,3,5-triazine], the inhibition at 10 µM in experiment [1] (setting [6]) is 43.8%; in experiment [2] (setting [7]) it was -7.99%; in experiment [3] (setting [8]), 13.4%; in experiment [4] (setting [9]), 0.19%; in experiment [5] (setting [10]), -21.9%.
As for `C/C(=N\Nc1nc(N/N=C(\C)c2ccc([N+](=O)[O-])cc2)nc(N2CCOCC2)n1)c1ccc([N+](=O)[O-])cc1` [compound 8a, 2-(Morpholin-4-yl)-4,6-bis[(E)-2-[1–(4-nitrophenyl)ethylidene]hydrazin-1-yl]-1,3,5-triazine], the inhibition at 10 µM came out at 35.3% in experiment [1] (setting [11]); 0.81% in experiment [2] (setting [12]); 33.1% in experiment [3] (setting [13]); 19% in experiment [4] (setting [14]); 32.7% in experiment [5] (setting [15]).
Turning to `O=C1Nc2ccc(Cl)cc2/C1=N\Nc1nc(N/N=C2/C(=O)Nc3ccc(Cl)cc32)nc(N2CCOCC2)n1` [compound 8b, (3E)-5-Chloro-3-[2–(4-{2-[(3E)-5-chloro-2-oxo-2,3-dihydro-1H-indol-3-ylidene]hydrazin-1-yl}6-(morpholin-4-yl)-1,3,5-triazin-2-yl)hydrazin-1-ylidene]-2,3-dihydro-1H-indol-2-one], the inhibition at 10 µM in experiment [1] (setting [6]) is 63.6%; in experiment [2] (setting [7]), 18%; in experiment [3] (setting [8]) it was 26.3%; in experiment [4] (setting [9]) it was 11.6%; in experiment [5] (setting [10]) it was 106%.
On to `COC(=O)C(Cc1ccccc1)Nc1nc(NC(Cc2ccccc2)C(=O)OC)nc(N2CCOCC2)n1` (centres unmarked) [compound 8c, Methyl 2-({4-[(1-methoxy-1-oxo-3-phenylpropan-2-yl)amino]-6-(morpholin-4-yl)-1,3,5-triazin-2-yl}amino)-3-phenylpropanoate], for which the inhibition at 10 µM is 1.47% in experiment [1] (setting [6]); -3.35% in experiment [2] (setting [7]); -0.43% in experiment [3] (setting [8]); -11.6% in experiment [4] (setting [9]); -11.7% in experiment [5] (setting [10]).
With `O=C(NNc1nc(NNC(=O)c2ccccc2)nc(N2CCOCC2)n1)c1ccccc1` [compound 8d, N'-[4-(morpholin-4-yl)-6-(phenylhydrazido)-1,3,5-triazin-2-yl]benzohydrazide], the inhibition at 10 µM is -9.42% in experiment [1] (setting [6]); 1.13% in experiment [2] (setting [7]); -3.15% in experiment [3] (setting [8]); -7.98% in experiment [4] (setting [9]); -9.45% in experiment [5] (setting [10]).

By inhibition is commonly meant the change of the read-out against control, counted positive when it falls.
